A value given as a limit tells only on which side of the number the result lay.

These results are taken from patent publication US6797721B2, “Phorboxazole derivatives for treating cancer” (Parker Hughes Institute, priority 1999, dated 2004).

The test system of one test is U373 glioblastoma cells. As to the kind of experiment: Matrigel invasion assay (Boyden chambers). Type of test: cell-based. To be noted: Homo sapiens, U373 MG; cells treated 72 hours; invasion 48 hours; read-out: IC50, inhibition of glioblastoma cell invasion through Matrigel. How it is done: The in vitro invasiveness of human brain tumor cell lines U-373 MG and breast cancer cell lines BT-20 and MDA-MB-231 cells was assayed using a previously published method which employs Matrigel™-coated Costar 24-well transwell cell culture chambers (“Boyden chambers”) with 8.0-μm-pore polycarbonate filter inserts (Albini,et.al, 1987, Cancer Res., 47:3239-3245). The chamber filters were coated with 50 μg/ml of Matrigel™ matrix, incubated overnight at room temperature under a laminar flow hood and stored at 4° C. Matrigel™ matrix is made up of several components of the extracellular matrix (ECM), including collagen, laminin and proteo-glycans. The cancer cells were incubated with 500, 250, 125, 62.5, and 31.2 nM concentrations of the synthetic Phorboxazole compounds for 72 hours.
On the day of the experiment, the coated inserts were rehydrated with 0.5 ml serum-free DMEM containing 0.1% bovine serum albumin for 1-2 hours. The treated cells were trypsinized, washed twice with serum-free DMEM containing BSA, counted and resuspended at 1×10^5 cells/ml. A 0.5 ml cell suspension containing 5×10^4 cells in a serum-free DMEM was added to the Matrigel™-coated and rehydrated filter inserts. A volume of 750 μl of NIH fibroblast conditioned medium was placed as a chemoattractant in 24-well plates and the inserts were placed in wells and incubated at 37° C. for 48 hours.
The invasive cells that migrated to the lower side of the filter were fixed, stained with Hema-3 solutions and counted under microscope. Five to 10 random fields per filter were counted to determine the mean (±SE) values for the invasive fraction. The invasive fractions of cells treated with phorboxazole A derivatives were compared to those of DMSO treated control cells and the percent inhibition of invasiveness was determined using the formula: [formula]
Each treatment condition was evaluated in duplicate in 3 independent experiments. IC50 values were calculated by non-linear regression analysis using Graphpad Prisin Software Version 2.0 (Graphpad Software Inc., San Diego, Calif.).

Test [1] deals with U266BL (multiple myeloma). The test can be described thus: MTT cytotoxicity assay, U266BL. The format is cell-based. To be noted: Homo sapiens. How it is done: (§1) The cytotoxicity assay of synthetic Phorboxazole A and various derivative compounds against human tumor cells was performed using the MTT (3-[4,5-dimethylthiazol-2-yl]-2,5-diphenyl tetrazolium bromide) assay (Boehringer Mannheim Corp., Indianapolis, Ind.). Briefly, exponentially growing brain tumor cells were seeded into a 96-well plate at a density of 2.5×10^4 cells/well and incubated for 36 hours at 37° C. prior to drug exposure. On the day of treatment, culture medium was carefully aspirated from the wells and replaced with fresh medium containing the various phorboxazole A derivative compounds as well as the tyrosine kinase inhibitory isoflavone genistein (GEN) at concentrations ranging from 0.1 to 250 μM. Triplicate wells were used for each treatment.
The cells were incubated with the various compounds for 24-36 hours at 37° C. in a humidified 5% CO2 atmosphere. To each well, 10 μl of MTT (0.5 mg/ml final concentration) was added and the plates were incubated at 37° C. for 4 hours to allow MTT to form formazan crystals by reacting with metabolically active cells. […] The absorbance of each well was measured in a microplate reader (Labsystems) at 540 nm and a reference wavelength of 690 nm. […] The percent survival was calculated using the formula: [formula]
The IC50 values were calculated by non-linear regression analysis. […]

Test [2] deals with RPMI-18226 (multiple myeloma). As to the kind of experiment: MTT cytotoxicity assay, RPMI-18226. Type of test: cell-based. The conditions noted are these: Homo sapiens, RPMI18226.
Test [3] has as its system BT-20 human breast cancer cells. The test can be described thus: MTT cytotoxicity assay, BT-20. Type of test: cell-based. To be noted: BT-20 (breast cancer), 24-36 hours, read-out: IC50 [MTT]. How it is done: as §1
Human glioblastoma cells U373 (brain cancer), human B-lineage acute lymphoblastic leukemia cells NALM-6, and human breast cancer cells BT-20 were obtained from American Type Culture Collection (Rockville, Md.) and maintained as a continuous cell line in Dulbecco's modified Eagles's medium supplemented with 10% fetal bovine serum and antibiotics.
The cells were incubated with the various compounds for 24-36 hours at 37° C. in a humidified 5% CO2 atmosphere. To each well, 10 μl of MTT (0.5 mg/ml final concentration) was added and the plates were incubated at 37° C. for 4 hours to allow MTT to form formazan crystals by reacting with metabolically active cells. The fonnazan crystals were solubilized overnight at 37° C. in a solution containing 10% SDS in 0.01 M HCl. The absorbance of each well was measured in a microplate reader (Labsystems) at 540 nm and a reference wavelength of 690 nm. To translate the OD540 values into the number of live cells in each well, the OD540 values were compared to those on standard OD540-versus-cell number curves generated for each cell line. The percent survival was calculated using the formula: [formula]
The IC50 values were calculated by non-linear regression analysis.

Test [4] has as its system NALM-6 B-lineage ALL cells. The test can be described thus: Clonogenic assay, NALM-6. To be noted: 7 days. The format is cell-based, human. How it is done: The growth-inhibiting activity of the synthetic Phorboxazole A and the synthesized derivatives was tested in clonogenic assays. Cancer cells were treated with 1 nM, 10 nM, and 100 nM doses of synthetic Phorboxazole A or derivatives of phorboxazole A. Treated cells included U373 human glioblastoma cells, NALM-6, human B-lineage acute lymphoblastic leukemia cells, and BT-20 human breast cancer cells. The cancer cells were resuspended in clonogenic medium consisting of alpha-MEM supplemented with 0.9% methylcellulose, 30% fetal bovine serum, and 50 μM 2-mercaptoethanol. Cells were plated in duplicate Petri dishes at 100,000 cells/mL/dish and cultured in a humidified 5% CO2 incubator for 7 days. Cancer cell colonies were enumerated on a grid using an inverted phase microscope of high optical resolution. Results were expressed as % inhibition of clonogenic cells at a particular concentration of the test agent using the formula:
% Inhibition=(1−Mean # of colonies [Test]/Mean # of colonies [Control]×100.

For the molecule `C=C1C[C@@H]2C[C@@H]3C[C@@H](O)C[C@@H](O3)c3coc(n3)/C=C/C[C@H]3O[C@@H](/C(C)=C/c4coc(C[C@]5(O)C[C@H](OC)C[C@H]([C@H](O)/C=C(C)/C=C/[C@@H](C/C=C/Br)OC)O5)n4)[C@H](C)[C@@H](OC(=O)/C=C\C[C@@H](C1)O2)[C@H]3C` [Compound 1, Phorboxazole A], the IC50 in the test on U373 glioblastoma cells is below 31.2 nM; in test [1], 14.9 nM; in test [2], 55.9 nM; in test [3], 3.4 nM. Further, the “Mean Number Colonies/10^4 cells” value in test [4] (1 nM) was 270; in test [4] (10 nM), 0; in test [4] (100 nM) it was 0. Moreover, the inhibition at 0.001 µM in test [4] (Homo sapiens, 168 h, 1 nM, read-out: Inhibition of clonogenic growth) is 86.8%. The inhibition at 0.01 µM in test [4] (Homo sapiens, 168 h, 10 nM, read-out: Inhibition of clonogenic growth) was above 99.9%. The inhibition at 0.1 µM in test [4] (Homo sapiens, 168 h, 100 nM, read-out: Inhibition of clonogenic growth) is above 99.9%.
